Where two headings read alike, the source gives them in different places.
Legend:
[1] = test system: eyes of New Zealand white rabbits
From the text: Female New Zealand white rabbits were obtained from Western Oregon Rabbit Co. (Philomath, Oreg.) and were housed and cared for in compliance with the regulations of the USDA Animal Welfare Act and under the review and approval of the institution's Animal Care and Use Committee.
Prior to placement on study, each animal underwent an ophthalmic examination (slit-lamp biomicroscopy and indirect ophthalmoscopy). […] The acceptance criteria for placement on study were scores of “0” for all variables.
Six female New Zealand White rabbits (two per subgroup) were administered urea-encapsulated liposome constructs (58 mol % DOPC, 42 mol % cholesterol) intravitreally (IVT) as a single dose into both eyes (OU). Animals were anesthetized with an intramuscular (IM) injection of ketamine hydrochloride (30 mg/kg), xylazine (5 mg/kg), and acepromazine (3 mg/kg) followed by isoflurane by inhalation (1-2.5%) in oxygen (1 L/min). One to two drops of topical proparacaine hydrochloride anesthetic (0.5%) were applied to the animal's eyes prior to the surgical procedure. Animals were kept anesthetized with their heads stabilized for three hours post dose, with one eye facing up and the other eye facing down.
After three hours, a clinical ophthalmic examination was performed, animals were euthanized. Vitreous humor (VH) was collected as 3 fractions. Pupils were dilated using one drop each of 10% phenylephrine and 1% tropicamide. Two 18G needles were inserted into the eye at the 3 o'clock and 9 o'clock position and advanced into the VH, one with the bevel pointed up towards the lens and the other with the bevel pointed down toward the retina. Three hundred μL of VH were drawn up through each needle, after which each needle was removed from the eye. The eye was then harvested and enucleated. Following enucleation, the remaining VH was collected as the third fraction. Samples from each eye in each animal remained separate and were not pooled. The weight of ocular tissues was recorded. Individual VH fractions were weighed separately. VH fractions were centrifuged at 16,100×g at room temperature for 20-30 minutes. The supernatant was separated. Pellets containing liposome constructs and supernatant were snap frozen separately on dry ice and stored at −60 to −80° C. Retina was also collected from these animals, snap frozen on dry ice, and stored at −60 to −80° C.
Two additional animals (one per subgroup) were administered a single or double dose of free urea solution IVT into the right eye (OD) and balanced salt solution (BSS) into the left eye (OS). Animals were anesthetized with an IM injection of ketamine hydrochloride (30 mg/kg) and xylazine (5 mg/kg). One to two drops of topical proparacaine hydrochloride anesthetic (0.5%) were applied to the animal's eyes prior to the surgical procedure.
Clinical ophthalmic examinations, fundus photography, and optical coherence tomography (OCT) were performed in these animals on Days 0-3, 4 (AM and PM), 8 (±1), 14, 21, and 28 post dose. For OCT, pupils were dilated with one drop each of 10% phenylephrine and 1% tropicamide approximately 10-15 minutes prior to imaging. Images were taken using the Spectralis® instrumentation (Heidelberg Engineering, Inc., Heidelberg, Germany).

[2] = test system: eyes of New Zealand white rabbits; conditions: for PVD observations by OCT: OD
Method: Five female New Zealand White rabbits were given a single administration of urea solution IVT into both eyes (OU) at doses of 2.5, 5, 10, 25 and 50 mg/eye.
Prior to placement in the study, each animal underwent an ophthalmic examination (slit-lamp biomicroscopy and indirect ophthalmoscopy). Ocular findings were scored according to a modified McDonald-Shadduck Scoring System. The acceptance criteria for placement on study were scores of “0” for all variables.
All procedures were performed using sterile technique. Animals were anesthetized for IVT injections, OCT, and B-Scan imaging with an IM injection of ketamine hydrochloride (50 mg/kg for imaging, 15-30 mg/kg for IVT injections) and xylazine (5 mg/kg). For one animal, anesthesia was prolonged via inhaled isoflurane (1-1.5% in 1.5-2 L/min oxygen) during baseline imaging due to extended duration of imaging. For another animal, inhaled isoflurane (2% in 1.5 L/min oxygen) was used to anesthetize the animal for IVT injections, because the animal had undergone baseline imaging (which included ketamine/xylazine anesthesia) earlier in the same day. One to two drops of topical proparacaine hydrochloride anesthetic (0.5%) were applied to the animal's eyes prior to the surgical procedure.
Prior to IVT injection, eyes were cleaned with Betadine and then rinsed with BSS. Using a ⅝ inch needle, injections were made 3 to 4 mm away from the limbus. Once the needle had been inserted, urea solution or BSS was injected. The needle was removed and the eye rinsed with BSS. Animals were recovered immediately after dosing and monitored during recovery. Triple antibiotic ophthalmic ointment was administered to the eyes during recovery.
Animals were euthanized on Day 35 (±4) and their eyes (whole globe) were collected and submitted for histopathological analysis.
Ophthalmic examinations (slit-lamp biomicroscopy and indirect ophthalmoscopy) were performed on Days −3 or 0 (baseline prior to test/control article administration), 1, 4, 7 or 8, 14, 21, and 35. Day 4 examinations were performed at the beginning of the workday. Day 21 examinations were performed only on Groups 1, 2, and 5. Ocular findings were scored according to a modified McDonald-Shadduck Scoring System. […] Observations included assessment of the development and time course of PVD.
Images of the fundus were taken on Days −3 or 0 (baseline prior to drug or BSS administration), 1, 4, 7 or 8, 14, 21, and 35. Day 4 images were taken at the beginning of the workday. Day 21 images were taken only of Groups 1, 2, and 5. Animals were not anesthetized for imaging.
OCT was performed on Days −3 or 0 (baseline prior to test/control article administration), 1, 4, 7 or 8, 14, 21, and 35. Day 4 images were taken at the beginning of the workday. Day 21 images were taken only of Groups 1, 2, and 5. Animals were anesthetized as described above. A total of 8 images per rabbit per day was acquired.
B-Scan ultrasound images were taken on Days −3 or 0 (baseline prior to test/control article administration) and on Day 35.

Structure (SMILES): NC(N)=O [urea, Urea]
- vitreous clouding (fundus photography) ([1]; 96 and 192 mg/eye IVT, OD): clouding of the OD vitreous from Day 0 through Day 3
- toxicity from Day 3 onward (fundus imaging) ([1]; 96 and 192 mg/eye IVT, OD, at the site of delivery, peaked Days 3-7): severe retinal folding and vascular hemorrhage
- retinal detachment (OCT) ([1]; 96 and 192 mg/eye IVT, peaked between Days 3 and 7, then subsided): retina had detached mostly at the ganglion cell layer
- days on which OCT imaging showed PVD ([1]; Subgroup 2a, 96 mg/eye IVT, OD): Day 3
- days on which OCT imaging showed PVD ([1]; Subgroup 2b, 192 mg/eye IVT, OD): Days 4 (AM and PM), 7, and 14
- time to development of PVD ([1]; free urea 96 mg/eye (single dose) or 192 mg/eye (double dose) IVT, OD): ≤ 2 days
- ocular irritation and swelling after IVT injection ([1]; immediately after IVT injection, resolved over the next few days in surviving animals): ocular irritation and swelling were observed
- adverse effects on body weights and general health ([1]; single IVT dosing, liposome constructs 56-96 mg total urea/eye, free urea 96 or 192 mg/eye): No adverse effects on body weights and no severe adverse effects on general health
- PVD in clinical ophthalmic examinations ([2]; 2.5-50 mg/eye IVT, up to Day 35): No evidence of PVD
- PVD observations by OCT ([2]; Group 1, 5 mg urea IVT): Partial PVD on Day 35
- PVD observations by OCT ([2]; Group 2, 10 mg urea IVT): Partial PVD on Day 7 and beyond
- PVD in B-scan images, Day 35 ([2]; Group 4, 50 mg/eye): evidence of PVD in the right eye (OD)
- PVD observations by OCT ([2]; Group 5, 2.5 mg urea IVT): Possible partial PVD on Day 4, none observed
- PVD in B-scan images, Day 35 ([2]; other animals (2.5, 5, 10, 25 mg/eye)): no PVD could be detected

From patent US11052158B2, “Delivery of urea to cells of the macula and retina using liposome constructs” (priority 2016, dated 2021)
